Measured values from patent US9321760B2 (Merck Patent GmbH, priority 2011, dated 2016).

What follows are compounds tested against P70S6K (T412E mutant) (Homo sapiens (Human), UniProt P23443, T412E) (assay: P70S6K enzyme assay). Settings: 3 nM P70S6K T412E mutant, 24 μM ATP, 1 μM FITC-AHA-AKRRRLSSLRA-OH substrate peptide, 90 min at 25° C.
Type: biochemical
In short: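 IC50s come from mobility-shift separation of phospho-product from FITC-AHA-AKRRRLSSLRA-OH substrate (1 μM) after the reaction was quenched with 10 mM EDTA. The reaction used 3 nM T412E-mutant enzyme and 24 μM ATP, running 90 min at 25° C in 100 mM Hepes pH 7.5 buffer.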

Sequence of P70S6K (T412E mutant) (P23443 whole entry T412E): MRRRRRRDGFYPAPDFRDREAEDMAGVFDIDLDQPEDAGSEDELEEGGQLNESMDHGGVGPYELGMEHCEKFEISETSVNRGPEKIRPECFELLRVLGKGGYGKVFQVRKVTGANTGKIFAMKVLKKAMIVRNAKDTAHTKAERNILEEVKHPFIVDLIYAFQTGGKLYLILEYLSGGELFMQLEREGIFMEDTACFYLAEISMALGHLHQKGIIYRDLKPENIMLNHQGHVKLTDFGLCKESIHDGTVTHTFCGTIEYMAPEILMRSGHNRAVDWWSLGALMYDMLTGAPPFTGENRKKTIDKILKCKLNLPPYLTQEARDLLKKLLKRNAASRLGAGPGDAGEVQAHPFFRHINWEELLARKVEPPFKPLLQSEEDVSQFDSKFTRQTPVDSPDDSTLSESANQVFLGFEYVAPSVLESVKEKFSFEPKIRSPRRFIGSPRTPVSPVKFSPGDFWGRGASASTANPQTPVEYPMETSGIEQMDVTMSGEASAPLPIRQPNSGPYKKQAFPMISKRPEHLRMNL

Row | SMILES | IC50 [nM]
1 | Nc1ncnc(N2CCC(Cc3ccc(Cl)cc3)CC2)c1Br [Example 46, 5-Bromo-6{4-(4-chlorobenzyl)-piperidin-1-yl}pyrimidin-4-amine] | 630
2 | CS(=O)(=O)c1ccc([C@H](CN2CCC2)N2CCN(c3ncnc(N)c3-c3cn[nH]c3)CC2)cc1 [Example 93, 6-{4-[(R)-2-Azetidin-1-yl-1-(4-methanesulfonyl-phenyl)-ethyl]-piperazin-1-yl}-5-(1H-pyrazol-4-yl)-pyrimidin-4-ylamine] | 4300
3 | Cc1cc(C(CN2CCC2)N2CCN(c3ncnc(N)c3-c3cn[nH]c3)CC2)ccc1Cl (centres unmarked) [Example 109, 6-{4-[2-Azetidin-1-yl-1-(4-chloro-3-methyl-phenyl)-ethyl]-piperazin-1-yl}-5-(1H-pyrazol-4-yl)-pyrimidin-4-ylamine] | 1900
4 | COC(=O)c1ccc(C(CN2CCC2)N2CCN(c3ncnc(N)c3-c3ccc(F)cc3)CC2)cc1 (centres unmarked) [Example 96, 4-(1-{4-[6-Amino-5-(4-fluoro-phenyl)-pyrimidin-4-yl]-piperazin-1-yl}-2-azetidin-1-yl-ethyl)-benzoic acid methyl ester] | 140
5 | NCC(c1ccc(C(F)(F)F)cc1)N1CCN(c2ncnc(N)c2Br)CC1 (centres unmarked) [Example 1, 6-{4-[2-Amino-1-(4-trifluoromethyl-phenyl)-ethyl]-piperazin-1-yl}-5-bromo-pyrimidin-4-ylamine] | 5.8
6 | CCc1c(N)ncnc1N1CCN([C@H](CN)c2ccc(Cl)cc2)CC1 [Example 179, 6-{4-[(S)-2-Amino-1-(4-chloro-phenyl)-ethyl]-piperazin-1-yl}-5-ethyl-pyrimidin-4-ylamine] | 13
7 | N#Cc1c(N)ncnc1N1CCC(N)(C(=O)N[C@@H](CCO)c2ccc(F)cc2)CC1 [Example 243, 4-Amino-1-(6-amino-5-cyano-pyrimidin-4-yl)-piperidine-4-carboxylic acid [(S)-1-(4-fluoro-phenyl)-3-hydroxy-propyl]-amide] | 390
8 | NCC(c1ccc(C(F)(F)F)cc1)N1CCN(c2ncnc(N)c2C2=CCCCC2)CC1 (centres unmarked) [Example 24, 6-(4-(2-amino-1-(4-(trifluoromethyl)phenyl)ethyl)piperazin-1-yl)-5-(cyclohex-1-en-1-yl)pyrimidin-4-amine] | 5.3
9 | Nc1ncnc(N2CCC(C(O)c3ccc(Cl)cc3)CC2)c1-c1ccc(F)cc1 (centres unmarked) [Example 138] | 2.5
10 | Nc1ncnc(N2CCC(N)(C(=O)N[C@@H](CCO)c3ccc(Cl)cc3)CC2)c1Cl [Example 235, 4-Amino-1-(6-amino-5-chloro-pyrimidin-4-yl)-piperidine-4-carboxylic acid [(S)-1-(4-chloro-phenyl)-3-hydroxy-propyl]-amide] | 250
11 | CC[C@H](NC(=O)C1(N)CCN(c2ncnc(N)c2C#N)CC1)c1ccc(Cl)cc1 [Example 219, 4-Amino-1-(6-amino-5-cyano-pyrimidin-4-yl)-piperidine-4-carboxylic acid [(S)-1-(4-chloro-phenyl)-propyl]-amide] | 140
12 | Nc1ncnc(N2CCC(N)(CNC(=O)c3ccc(F)cc3F)CC2)c1Br [Example 207, N-[4-Amino-1-(6-amino-5-bromo-pyrimidin-4-yl)-piperidin-4-ylmethyl]-2,4-difluoro-benzamide] | 150
13 | N#Cc1ccc(-c2c(N)ncnc2N2CCC(N)(CNC(=O)c3ccc(F)cc3F)C2)cc1 (centres unmarked) [Example 199, N-{3-Amino-1-[6-amino-5-(4-cyano-phenyl)-pyrimidin-4-yl]-pyrrolidin-3-ylmethyl}-2,4-difluoro-benzamide] | 11
14 | CCOC(=O)Cn1cc(-c2c(N)ncnc2N2CCN(C(CN3CCC3)c3ccc(Cl)c(Cl)c3)CC2)cn1 (centres unmarked) [Example 117, [4-(4-Amino-6-{4-[2-azetidin-1-yl-1-(3,4-dichloro-phenyl)-ethyl]-piperazin-1-yl}-pyrimidin-5-yl)-pyrazol-1-yl]-acetic acid ethyl ester] | 24000
15 | NC(=O)C[C@H](NC(=O)C1(N)CCN(c2ncnc(N)c2Cl)CC1)c1ccc(Cl)cc1 [Example 217, 4-Amino-1-(6-amino-5-chloro-pyrimidin-4-yl)-piperidine-4-carboxylic acid [(S)-2-carbamoyl-1-(4-chloro-phenyl)ethyl]-amide] | 820
16 | Nc1ncnc(N2CCN(Cc3ccc(C(F)(F)F)cc3)CC2)c1-c1ccc(F)cc1 [Example 13, 5-(4-Fluoro-phenyl)-6-[4-(4-trifluoromethyl-benzyl)-piperazin-1-yl]-pyrimidin-4-ylamine] | 7.2
17 | Cc1ccc([C@H](CCO)NC(=O)C2(N)CCN(c3ncnc(N)c3Cl)CC2)cc1 [Example 237, 4-Amino-1-(6-amino-5-chloro-pyrimidin-4-yl)-piperidine-4-carboxylic acid ((S)-3-hydroxy-1-p-tolyl-propyl)-amide] | 860

Second part, the compound after the results:

Row | IC50 [nM] | SMILES
18 | 960 | Nc1ncnc(N2CCC(Cc3ccc(C(F)(F)F)cc3)CC2)c1Br [Example 47, 5-Bromo-6{4-(4-trifluoromethylbenzyl)-piperidin-1-yl}pyrimidin-4-amine]
19 | 390 | Nc1ncnc(N2CCN(C(CN3CCC3)c3cccc(Cl)c3Cl)CC2)c1-c1cn[nH]c1 (centres unmarked) [Example 126, 6-{4-[2-Azetidin-1-yl-1-(2,3-dichloro-phenyl)-ethyl]-piperazin-1-yl}-5-(1H-pyrazol-4-yl)-pyrimidin-4-ylamine]
20 | 220 | COc1ccc(C(C#N)N2CCN(c3ncnc(N)c3-c3ccc(F)cc3)CC2)cn1 (centres unmarked) [Example 182, 2-(4-(6-amino-5-(4-fluorophenyl)pyrimidin-4-yl)piperazin-1-yl)-2-(6-methoxypyridin-3-yl)acetonitrile]
21 | 3700 | Nc1ncnc(N2CCN([C@H](CN3CCC3)c3ccc4c(c3)OCCO4)CC2)c1-c1cn[nH]c1 [Example 108, 6-{4-[(S)-2-Azetidin-1-yl-1-(2,3-dihydro-benzo[1,4]dioxin-6-yl)-ethyl]-piperazin-1-yl}-5-(1H-pyrazol-4-yl)-pyrimidin-4-ylamine]
22 | 87 | C[C@H](NC(=O)C1(N)CCN(c2ncnc(N)c2-c2cn[nH]c2)CC1)c1ccc(Cl)cc1 [Example 224, 4-Amino-1-[6-amino-5-(1H-pyrazol-4-yl)-pyrimidin-4-yl]-piperidine-4-carboxylic acid [(S)-1-(4-chloro-phenyl)-ethyl]-amide]
23 | > 1000 | N#CC(c1cccc(C(F)(F)F)c1)N1CCN(c2ncnc(N)c2-c2ccc(F)cc2)CC1 (centres unmarked) [Example 152, {4-[6-Amino-5-(4-fluoro-phenyl)-pyrimidin-4-yl]-piperazin-1-yl}-(3-trifluoromethyl-phenyl)-acetonitrile]
24 | 360 | Nc1ncnc(N2CCN(C(CN3CCC3)c3ccc4c(c3)CCCC4)CC2)c1-c1ccc(F)cc1 (centres unmarked) [Example 123, 6-{4-[2-Azetidin-1-yl-1-(5,6,7,8-tetrahydro-naphthalen-2-yl)-ethyl]-piperazin-1-yl}-5-(4-fluoro-phenyl)-pyrimidin-4-ylamine]
25 | 4.8 | Nc1ncnc(N2CCC(N)(CNC(=O)c3ccc(F)cc3F)C2)c1-c1ccc(F)cc1 (centres unmarked) [Example 198, N-{3-Amino-1-[6-amino-5-(4-fluoro-phenyl)-pyrimidin-4-yl]-pyrrolidin-3-ylmethyl}-2,4-difluoro-benzamide]
26 | 79 | NCC(c1ccc(C(F)(F)F)cc1)N1CCN(c2ncnc(N)c2Cl)CC1 (centres unmarked) [Example 80, 6-{4-[2-Amino-1-(4-trifluoromethyl-phenyl)-ethyl]-piperazin-1-yl}-5-chloro-pyrimidin-4-ylamine]
27 | 3400 | Nc1ncnc(N2CCN(C(CN3CCC3)c3cccc(F)c3F)CC2)c1-c1cn[nH]c1 (centres unmarked) [Example 124, 6-{4-[2-Azetidin-1-yl-1-(2,3-difluoro-phenyl)-ethyl]-piperazin-1-yl}-5-(1H-pyrazol-4-yl)-pyrimidin-4-ylamine]
28 | 200 | CCc1c(N)ncnc1N1CCN(C(CN)c2ccc(Cl)nc2)CC1 (centres unmarked) [Example 177, 6-{4-[2-Amino-1-(6-chloro-pyridin-3-yl)-ethyl]-piperazin-1-yl}-5-ethyl-pyrimidin-4-ylamine]
29 | 45 | CN(C)CC(c1ccc(C(F)(F)F)cc1)N1CCN(c2ncnc(N)c2-c2ccc(C(=O)O)cc2)CC1 (centres unmarked) [Example 26, 4-(4-amino-6-(4-(2-(dimethylamino)-1-(4-(trifluoromethyl)phenyl)ethyl)piperazin-1-yl)pyrimidin-5-yl)benzoic acid]
30 | 22 | NC[C@H](c1ccc(C(F)(F)F)cc1)C1CCN(c2ncnc(N)c2-c2cn[nH]c2)CC1 (single isomer, unassigned) [Example 56]
31 | 6.1 | NCC(c1ccc(Cl)c(F)c1)N1CCN(c2ncnc(N)c2-c2cn[nH]c2)CC1 (centres unmarked) [Example 187, 6-(4-(2-amino-1-(4-chloro-3-fluorophenyl)ethyl)piperazin-1-yl)-5-(1H-pyrazol-4-yl)pyrimidin-4-amine]
32 | 240 | N#CC(c1ccc(C(F)(F)F)cc1)N1CCN(c2ncnc(N)c2-c2ccc(F)cc2)CC1 (centres unmarked) [Example 168, {4-[6-Amino-5-(4-fluoro-phenyl)-pyrimidin-4-yl]-piperazin-1-yl}-(4-trifluoromethyl-phenyl)-acetonitrile]
33 | 29 | Nc1ncnc(N2CCN(C(CN3CCCC3)c3ccc(F)cc3)CC2)c1-c1ccc(F)cc1 (stereo in doubt) [Example 82, (R)5-(4-Fluorophenyl)-6{4-[1-(4-fluorophenyl)-2-pyrrolidin-1-yl-ethyl]-piperazin-1-yl}-pyrimidin-4-ylamine]
34 | 6100 | N#CC(c1cccc(C(F)(F)F)c1)N1CCN(c2ncnc(N)c2Br)CC1 (centres unmarked) [Example 166, [4-(6-Amino-5-bromo-pyrimidin-4-yl)-piperazin-1-yl]-(3-trifluoromethyl-phenyl)-acetonitrile]
35 | > 1000 | Nc1ncnc(N2CCN(C(CN3CCCCC3)c3cccc(F)c3)CC2)c1Br (centres unmarked) [Example 68, 5-Bromo-6{4-[1-(3-fluoro-phenyl)-2-piperidin-1-yl-ethyl]-piperazin-1-yl}-pyrimidin-4-ylamine]
